Results on three compounds are retold here after article PMC10046377, “Inhibitors of the Oncogenic PA2G4-MYCN Protein-Protein Interface” (Cancers, 2023).

SMILES strings stand for the structures.

The subject of one experiment is MYCN. Put plainly: Western blot of MYCN protein level. Type of experiment: cell-based, human. As to conditions: Kelly and SK-N-BE(2)-C cells; #5333/#5338: 48 h, 10–30 μM. The protocol:
(§1) Protein was extracted from cell pellets using RIPA buffer (Sigma) with 10% protease inhibitor (Sigma, Sydney, Australia). Quantification of proteins was conducted using Pierce BCA protein assay kit (Thermo Scientific), according to manufacturer’s instructions. A total of 30–50 μg protein samples were loaded onto Criterion TGX 10% precast gel (Bio-Rad) or NuPAGE™ 4–12% Mini Protein Gel (Invitrogen, Life technologies) and transferred to a nitrocellulose membrane (Bio-Rad). The membrane was blocked in 5% skim milk in Tris-buffered saline with Tween-20 (20 mM Tris-HCl (pH 7.6), 137 mM NaCl, 0.1% Tween-20) for an hour before incubation at 4 °C overnight with the following primary antibodies: mouse anti-MYCN(1:2000, Santa-Cruz, Cat# sc-53993), rabbit anti-PA2G4 (1:2000, Atlas Antibodies, Cat# HPA016484), rabbit anti-PARP (1:1000, Cell Signalling Technologies, Danvers, MA, USA, Cat# 9542), rabbit anti-Caspase-3 (1:500, Cell Signalling Technologies, Cat# 9662), mouse anti-Bcl-2 (1:1000, Cell Signalling Technologies, Cat# 15071), rabbit anti-Bax (1:1000, Cell Signalling Technologies, Cat# 2772), mouse anti-Vinculin (1:2000, Sigma, Cat# V9131), mouse anti-GAPDH (1:2000, Santa-cruz, Cat# sc-365062), rabbit anti-β-actin (1:5000, Sigma, Cat# SAB2100037), rabbit anti-GATA2 (1:1000, Cell Signalling Technologies, Cat# 4595), mouse anti-Flag/DYKDDDDK tag (1:1000, Cell Signalling Technologies, Cat# 8146). Anti-mouse or anti-rabbit horseradish peroxidase secondary antibodies (1:5000, Life technologies, Cat# 31430, 31460) were added and incubated for 2 h at room temperature. Immunoblots were visualised by Clarity ECL reagent (Bio-Rad) and ChemiDoc MP Imaging System (Bio-Rad). Quantification of protein expression was measured by Image Lab software (Bio-Rad) and normalised to loading control.
(§2) Next, we examined whether #5333 and #5338 treatment for 48 h affected the levels of WS6 target proteins, PA2G4, and MYCN in neuroblastoma cells. […] Cell viability was measured following #5333 and #5338 treatments for 48–72 h. […] Cell viability was measured following #5333, #5338, or WS6 treatments for 72 h.
Background: A western blot detects proteins with antibodies after separation by electrophoresis.

The next experiment concerns WI-38 cells. Put plainly: Alamar Blue cell viability assay, WI-38 non-malignant myofibroblasts. Type of experiment: cell-based. The following applies: Homo sapiens, read-out: IC50 WI-36. From the text: (§3) The MYCN amplified neuroblastoma cell line SK-N-BE(2)-C was kindly provided by Professor June Biedler (Memorial Sloan Kettering Cancer Centre, New York, NY, USA), and Kelly was obtained from European Collection of Cell Cultures. The two normal lung fibroblast cell lines (MRC-5 and WI-38) were purchased from ATCC. SK-N-BE(2)-C shMYCN#2 doxycycline-inducible cell and Kelly shMYCN#2 doxycycline-inducible cell were custom-made by GenScript (Piscataway, NJ, USA). SK-N-BE(2)-C, SK-N-BE(2)-C shMYCN#2, and SHEP MYCN3 doxycycline-inducible cells were maintained in Dulbecco’s modified Eagle’s medium (DMEM) (Invitrogen, Life Technologies, Waltham, MA, USA) with 10% foetal calf serum (FCS). Kelly and Kelly shMYCN#2 doxycycline-inducible cell were cultured in Roswell Park Memorial Institute (RPMI) 1640 (Invitrogen, Life Technologies) with 10% FCS. MRC-5 and WI-38 were cultured in Alpha-MEM media (Invitrogen, Life Technologies) with 10% FCS. All cells were not cultured for more than 2 months. All used cell lines were authenticated by Cell Bank Australia (Westmead, NSW, Australia) as being free from mycoplasma, and cultured at 37 °C and 5% CO2 in a humidifier incubator.
(§4) Cell viability was determined by the Alamar Blue assay (75 mg resazurin, 12.5 mg methylene blue, 164.5 mg potassium hexacyanoferrate (III), 211 mg potassium hexacyanoferrate (II) trihydrate in 500 mL of phosphate buffered saline). After 6 h incubation with Alamar Blue, the change of fluorescence was measured by Victor 3 multilabel Plate Reader (Perkin Elmer Australia, Melburne, Australia) at an excitation wavelength of 560 nm and an emission wavelength of 590 nm.
(§5) We have shown that the PA2G4 protein increased the half-life of the oncoprotein MYCN through direct binding, and competitive chemical inhibition of this bond by WS6 reduced tumorigenicity both in vitro and in vivo [11]. […] Here, we explored the structure–activity relationship (SAR) of WS6 analogue compounds with the aim to increase efficacy and reduce toxicity. […] The in vitro cytotoxicity of these 14 compounds were measured by cell viability assays using Alamar Blue in MYCN amplified human neuroblastoma (SK-N-BE(2)-C and Kelly) cell lines compared to non-malignant (WI-38, MRC-5) myofibroblast cell lines (Figure 1B,C and Supplementary Figure S1A).
On the technique in general: Alamar Blue is a resazurin reagent that responds to reducing activity.

The next experiment has as its system PA2G4. Put plainly: Western blot of PA2G4 protein level. Type of experiment: cell-based, human. The following applies: Kelly and SK-N-BE(2)-C cells; #5333/#5338: 48 h, seen more consistently at 30 μM, with the exception of #5333 in SK-N-BE(2)-C. The protocol: as §1, §2
Experiment [1] concerns neuroblastoma cells (Kelly, SK-N-BE(2)-C) compared to non-malignant myofibroblasts (WI-38, MRC-5). Put plainly: Therapeutic window, neuroblastoma cells versus non-malignant myofibroblasts. Type of experiment: cell-based, human. As to conditions: non-malignant myofibroblast IC50 versus neuroblastoma cell IC50. The protocol:
as §4, §5

The subject of another experiment is SK-N-BE(2)-C cells. The experiment can be described thus: Alamar Blue cell viability assay, SK-N-BE(2)-C. As to conditions: Homo sapiens, MYCN amplified neuroblastoma cell line. It is filed as cell-based.
Text: as §3, §4, §5

For the next experiment, the system named is MRC-5 cells. The experiment can be described thus: Alamar Blue cell viability assay, MRC-5 non-malignant myofibroblasts. It is filed as cell-based. The following applies: Homo sapiens, MRC5.
Text: as §3, §4, §5

For the next experiment, the system named is Kelly cells. Put plainly: Alamar Blue cell viability assay, Kelly. Type of experiment: cell-based. The following applies: Homo sapiens, MYCN amplified neuroblastoma cell line.
Text: as §3, §4, §5

The term IC50 denotes the point on the concentration scale where inhibition reaches its midpoint. In the case of `Cc1cccc(Oc2cc(N3CCC(C(=O)NCc4cccc(C(F)(F)F)c4)CC3)ncn2)c1C` [#3567], in the experiment on MYCN, the “MYCN protein levels (Western blot)” value is given as “significantly reduced”. Besides, the IC50 came to 80 µM in the experiment with WI-38 cells, 30 µM in the experiment on SK-N-BE(2)-C cells, 80 µM with MRC-5 cells and 29 µM in the experiment on Kelly cells. In the experiment with PA2G4, the “PA2G4 protein levels (Western blot)” value is listed as “significantly reduced”. Besides, in experiment [1], the “Therapeutic window (fold difference)” value is reported as 2.7 fold.
In the case of `Cc1cccc(Oc2cc(N3CCC(C(=O)NCc4cccc(Br)c4)CC3)ncn2)c1C` [#5333], the “MYCN protein levels (Western blot)” value in the experiment on MYCN is “significantly reduced MYCN levels”. Also, the IC50 was 100 µM in the experiment with WI-38 cells, 26.5 µM in the experiment with SK-N-BE(2)-C cells, 100 µM in the experiment with MRC-5 cells and 28.6 µM in the experiment with Kelly cells. Moreover, the “PA2G4 protein levels (Western blot)” value in the experiment on PA2G4 was “Reductions in PA2G4 levels”. Also, the “Therapeutic window (fold difference)” value in experiment [1] is given as 3.6 fold.
For the compound `Cc1cccc(Oc2cc(N3CCC(C(=O)N[C@@H](C)CCc4ccccc4)CC3)ncn2)c1C` [#5338], in the experiment with MYCN, the “MYCN protein levels (Western blot)” value was “significantly reduced MYCN levels”. The IC50 with WI-38 cells worked out at 100 µM; with SK-N-BE(2)-C cells, 23.3 µM; in the experiment with MRC-5 cells, 100 µM; with Kelly cells it was 30 µM. In addition, the “PA2G4 protein levels (Western blot)” value in the experiment with PA2G4 is on record as “Reductions in PA2G4 levels”. Moreover, the “Therapeutic window (fold difference)” value in experiment [1] is 3.8 fold.
